Laboratory results taken from patent US11110158B2, “Prostate-associated antigens and vaccine-based immunotherapy regimens” (Pfizer Inc., priority 2012, dated 2021).
“And” between values parts separate entries of the source, which are not always exact repeats. Equal entries are not always repeated.

Columns and labels:
[1] = tested on: rhesus PSMA; test: IFNγ ELISPOT of PBMCs, PSMA vaccine with or without anti-CTLA-4 in Indian rhesus macaques, rhesus PSMA recall antigens; type: in vivo; details: Group 2, vaccine + CpG 3 mg intradermal + aCTLA4 10 mg/kg intravenous (IV), normalized to 1e6 PBMCs, one cell per animal
Text: Three groups of male Indian rhesus macaques, five to six (#1 to 5 or 6) per each test group, were immunized with a nucleic acid (SEQ ID NO: 10) that encodes a human PSMA modified antigen (SEQ ID NO: 9) delivered by adenovirus (1e11 V.P. injected intramuscularly) followed by 2 DNA immunizations (8 actuations/immunization, 4 actuations per each right and left side of the lower abdomen) by PMED with 6 and 9 week intervals respectively. Animals in Groups 2 and 3 additionally received bilateral intradermal injections of 3 mg of CpG (PF-03512676) subsequently after the PMED immunization in proximity to each inguinal draining lymph node. Group 2 also received intravenous injections of anti-CTLA-4 monoclonal antibody (CP-675, 206) at 10 mg/kg and group 3 received intradermal injections of anti-CTLA-4 monoclonal antibody (CP-675, 206) at 5 mg/kg in proximity to each left and right inguinal vaccine draining lymph node at the time of the second PMED immunization.
Peripheral blood samples were collected from each animal sixteen days after the last PMED immunization. Peripheral blood mononuclear cells (PBMCs) were isolated from the samples and were subjected to an IFNγ ELISPOT assay to measure the PSMA specific T cell responses. […] The number of IFNγ spot forming cells (SFC) were counted by CTL reader. […]

[2] = tested on: rhesus PSMA; test: IFNγ ELISPOT of PBMCs, rhesus PSMA adenovirus with subcutaneous anti-CTLA-4 in Indian rhesus macaques; type: in vivo; details: versus vaccine alone
Procedure: Five groups of male Indian rhesus macaques, seven (#1 to 7) per each test group, were immunized with an adenovirus encoding a rhesus PSMA modified polypeptide delivered by bilateral intramuscular injections (2×5e10 V.P.). Immediately following the adenovirus injections, group 1 received vehicle, and groups 2 to 4 received bilateral subcutaneous injections of anti-CTLA-4 antibody (CP-675, 206) at doses 2×25 mg, 2×16.7 mg and 2×8.4 mg respectively in proximity to the vaccine draining lymph node.
Nine days after the immunization, peripheral blood mononuclear cells (PBMCs) were isolated from each animal and were subjected to an IFNγ ELISPOT assay to measure the rhesus PSMA specific T cell responses. Briefly, 4e5 PBMCs from individual animals were plated per well with pools of rhesus PSMA specific peptides (P1, P2, P3 or R1+R2 defined in table 24A) or nonspecific control peptides (human HER2 peptide pool) each at 2 ug/ml in IFNγ ELISPOT plates. The plates were incubated for 16 hrs at 37° C. and 5% CO2 and washed and developed after incubation as per manufacturer's instruction. The number of IFNγ spot forming cells (SFC) were counted by CTL reader. Each condition was performed in duplicates. The average of the duplicates from the background adjusted SFC of the rhesus PSMA specific peptide pools was normalized to the response in 1e6 PBMCs.
A capture antibody specific to IFNγ […]BD Bioscience, #51-2525kc) is coated onto a polyvinylidene fluoride (PVDF) membrane in a microplate overnight at 4° C. The plate is blocked with serum/protein to prevent nonspecific binding to the antibody. After blocking, effector cells (such as splenocytes isolated from immunized mice or PBMCs isolated from rhesus macaques) and targets (such as PSMA peptides from peptide library, target cells pulsed with antigen specific peptides or tumor cells expressing the relevant antigens) are added to the wells and incubated overnight at 37° C. in a 5% CO2 incubator. Cytokine secreted by effector cells are captured by the coating antibody on the surface of the PVDF membrane. […]

Tremelimumab: fully human IgG2 anti-CTLA-4 monoclonal antibody, CAS 745013-59-6, SEQ ID NOs:42 and 43
PSMA specific IFNγ SFC, recall antigen R1 [1]: 6.3 SFC and 0.0 SFC and 22.5 SFC and 26.3 SFC and 97.5 SFC | PSMA specific IFNγ SFC, recall antigen rPSMA protein [1]: 0.0 SFC and 3.8 SFC and 1.3 SFC and 2.5 SFC and 20.0 SFC | rhesus PSMA specific IFNγ T cell response ([2]; group 2: 50 mg (2×25 mg) subcutaneous near vaccine draining lymph node, P=0.001): significantly enhanced | rhesus PSMA specific IFNγ T cell response ([2]; group 3: 33.4 mg subcutaneous, P=0.004): significantly enhanced | rhesus PSMA specific IFNγ T cell response ([2]; group 4: 16.7 mg subcutaneous, P=0.05): significantly enhanced
